Measurements from ChEMBL document CHEMBL5352409, “Design, synthesis, and pharmacological evaluation of 2-(1-(1,3,4-thiadiazol-2-yl)piperidin-4-yl)ethan-1-ol analogs as novel glutaminase 1 inhibitors” (Eur J Med Chem, 2022).
The source made the active and inactive calls. The rule behind the calls is not given here.

Key:
[1] = Terminal half life in rat at 3 mg/kg, iv; assay type: ADME, organism-based; settings: in vivo, read-out: beta t1/2 (converted)
[2] = molecular target: T1, Glutaminase kidney isoform, mitochondrial (Homo sapiens, UniProt O94925); assay: Inhibition of GLS1 (unknown origin)
T1 sequence (O94925 whole entry): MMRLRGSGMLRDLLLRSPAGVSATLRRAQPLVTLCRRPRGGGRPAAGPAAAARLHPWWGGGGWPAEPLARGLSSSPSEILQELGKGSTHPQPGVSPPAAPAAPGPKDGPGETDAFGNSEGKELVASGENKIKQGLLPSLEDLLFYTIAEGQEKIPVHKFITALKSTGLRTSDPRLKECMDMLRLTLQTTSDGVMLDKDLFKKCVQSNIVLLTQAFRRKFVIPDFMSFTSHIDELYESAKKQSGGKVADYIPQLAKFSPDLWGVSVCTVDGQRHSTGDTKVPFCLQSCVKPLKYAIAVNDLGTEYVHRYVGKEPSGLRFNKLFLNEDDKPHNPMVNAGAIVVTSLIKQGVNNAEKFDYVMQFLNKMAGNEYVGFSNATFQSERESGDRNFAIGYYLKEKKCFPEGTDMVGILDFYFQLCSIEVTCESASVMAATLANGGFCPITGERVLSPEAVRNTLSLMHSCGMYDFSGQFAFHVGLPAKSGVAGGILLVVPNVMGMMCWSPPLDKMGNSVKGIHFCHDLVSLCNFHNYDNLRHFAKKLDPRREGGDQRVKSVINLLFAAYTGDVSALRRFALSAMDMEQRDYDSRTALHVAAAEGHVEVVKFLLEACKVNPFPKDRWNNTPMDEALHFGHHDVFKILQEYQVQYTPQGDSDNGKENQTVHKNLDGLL

A549 [3] = assay: Induction of cell cycle arrest in human A549 cells assessed as accumulation of cells at G0/G1 phase at 200 nM incubated for 48 hrs by propidium iodide staining based flow cytometry analysis (Rvb=61.61%); assay type: functional
[4] = human, microsomes
Description: Metabolic stability in human liver microsome assessed as intrinsic clearance

[5] = molecular target: T2, Glutaminase liver isoform, mitochondrial (Homo sapiens, UniProt Q9UI32); assay: Inhibition of GLS2 (unknown origin)
T2 sequence (Q9UI32 whole entry): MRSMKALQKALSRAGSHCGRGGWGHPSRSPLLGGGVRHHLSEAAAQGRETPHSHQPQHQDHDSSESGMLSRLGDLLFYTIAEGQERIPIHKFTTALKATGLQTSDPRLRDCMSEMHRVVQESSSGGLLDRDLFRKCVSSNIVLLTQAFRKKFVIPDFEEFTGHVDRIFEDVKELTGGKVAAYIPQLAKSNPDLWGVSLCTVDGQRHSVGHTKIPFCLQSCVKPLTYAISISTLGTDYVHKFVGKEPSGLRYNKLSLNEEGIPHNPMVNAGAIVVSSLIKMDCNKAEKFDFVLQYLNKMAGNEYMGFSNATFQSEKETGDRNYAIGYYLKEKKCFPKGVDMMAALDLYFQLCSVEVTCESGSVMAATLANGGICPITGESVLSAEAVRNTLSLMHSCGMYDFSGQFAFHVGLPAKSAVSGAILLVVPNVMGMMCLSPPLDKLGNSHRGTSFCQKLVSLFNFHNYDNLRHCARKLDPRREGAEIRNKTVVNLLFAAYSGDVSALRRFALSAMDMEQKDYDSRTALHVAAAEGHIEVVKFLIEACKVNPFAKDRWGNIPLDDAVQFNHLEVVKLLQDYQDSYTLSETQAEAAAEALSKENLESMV

A549 [6] = assay: Inhibition of glutaminase in human A549 cells assessed as ratio of glutamine to glutamate level (Rv b= 0.45 +/- 0.011); assay type: cell-based
A549 [7] = assay: Induction of cell cycle arrest in human A549 cells assessed as accumulation of cells at G0/G1 phase at 800 nM incubated for 48 hrs by propidium iodide staining based flow cytometry analysis (Rvb=61.61%); assay type: functional
A549 [8] = assay: Antiproliferative activity against human A549 cells assessed as reduction in cell viability; assay type: functional, cell-based
[9] = Cmax in rat at 3 mg/kg, po; assay type: ADME, organism-based; set-up: dose 3 mg/kg, route po; settings: in vivo
A549 [10] = assay: Induction of cell cycle arrest in human A549 cells assessed as accumulation of cells at S phase at 200 nM incubated for 48 hrs by propidium iodide staining based flow cytometry analysis (Rvb=14.51%); assay type: functional
[11] = Clearance in rat at 3 mg/kg, po; assay type: ADME, organism-based; settings: in vivo
in vitro = settings: human, liver microsomes
A549 [12] = assay: Induction of cell cycle arrest in human A549 cells assessed as accumulation of cells at S phase at 100 nM incubated for 48 hrs by propidium iodide staining based flow cytometry analysis (Rvb=14.51%); assay type: functional
A549 [13] = assay: Induction of cell cycle arrest in human A549 cells assessed as accumulation of cells at S phase at 50 nM incubated for 48 hrs by propidium iodide staining based flow cytometry analysis (Rvb=14.51%); assay type: functional
A549 [14] = assay: Induction of cell cycle arrest in human A549 cells assessed as accumulation of cells at G0/G1 phase at 100 nM incubated for 48 hrs by propidium iodide staining based flow cytometry analysis (Rvb=61.61%); assay type: functional
A549 [15] = assay: Induction of cell cycle arrest in human A549 cells assessed as accumulation of cells at G2/M phase at 50 nM incubated for 48 hrs by propidium iodide staining based flow cytometry analysis (Rvb=23.88%); assay type: functional
A549 [16] = assay: Induction of intracellular ROS production in human A549 cells by DCFH-DA staining based fluorescence microscopic analysis; assay type: functional, cell-based; settings: dose 1-10 µM
A549 [17] = assay: Induction of cell cycle arrest in human A549 cells assessed as accumulation of cells at G2/M phase at 100 nM incubated for 48 hrs by propidium iodide staining based flow cytometry analysis (Rvb=23.88%); assay type: functional
A549 [18] = assay: Inhibition of colony formation in human A549 cells at 2 to 8 uM; assay type: functional, cell-based; settings: dose 2-8 µM
A549 [19] = assay: Induction of apoptosis in human A549 cells assessed as early apoptotic cells at 5 uM incubated for 48 hrs by annexin V-FITC and propidium iodide based flow cytometry analysis (Rvb =12.289%); assay type: functional
A549 [20] = assay: Induction of cell cycle arrest in human A549 cells assessed as accumulation of cells at G2/M phase at 800 nM incubated for 48 hrs by propidium iodide staining based flow cytometry analysis (Rvb=23.88%); assay type: functional
[21] = Terminal half life in rat at 3 mg/kg, po; assay type: ADME, organism-based; settings: in vivo, read-out: beta t1/2 (converted)
HCT-116 [22] = assay: cells; settings: Homo sapiens
[23] = Cmax in rat at 3 mg/kg, iv; assay type: ADME, organism-based; set-up: dose 3 mg/kg, route iv; settings: in vivo
A549 [24] = assay: Induction of apoptosis in human A549 cells assessed as early apoptotic cells at 1 uM incubated for 48 hrs by annexin V-FITC and propidium iodide based flow cytometry analysis (Rvb =12.289%); assay type: functional
HCT-116 [25] = assay: Antitumor activity against human HCT-116 cells xenografted in mouse model assessed as tumor growth inhibition at 100 mg/kg once daily via oral gavage administered for 28 days relative to control; assay type: functional; set-up: scale not given: the % may be the effect or the level left; settings: time 28 day
HCT-116 [26] = assay: Induction of intracellular ROS production in human HCT-116 cells by DCFH-DA staining based fluorescence microscopic analysis; assay type: functional, cell-based; settings: dose 1-10 µM

Compound: CCCCCCN1CCC(CNC(=O)c2cccc(COCCC3CCN(c4nnc(NC(=O)Cc5ccccc5)s4)CC3)c2)CC1
- half-life [1]: 9.9 h
- IC50 [2]: 68 nM
- Activity (A549 [3]): 66.93%
- CLH [4]: 15.6 g/mL/min
- IC50 [5]: > 15000 nM
- Ratio (A549 [6]): 1.32
- Activity (A549 [7]): 68.55%
- IC50 (A549 [8]): 570 nM
- Cmax [9]: 41.3 ng/mL
- Activity (A549 [10]): 13.34%
- CL [11]: 557 mL/min/kg
- half-life (in vitro): > 2 h
- Activity (A549 [12]): 17.76%
- Activity (A549 [13]): 13.17%
- Activity (A549 [14]): 64.94%
- Activity (A549 [15]): 24.1%
- Activity (A549 [16]): Dose-Dependent Effect
- Activity (A549 [17]): 17.3%
- inhibition (A549 [18]): Active
- Activity (A549 [19]): 20.673%
- Activity (A549 [20]): 19.67%
- half-life [21]: 19.8 h
- IC50 (HCT-116 [22]): 420 nM
- Cmax [23]: 699 ng/mL
- Activity (A549 [24]): 14.845%
- Activity (HCT-116 [25]): 42%
- Activity (HCT-116 [26]): Dose-Dependent Effect
